The experiment relates to LX-2 cells (human HSCs). The experiment is described as follows: CCK8 experiment, proliferation of LX-2 cells. In kind it is cell-based. To be noted: 48 h incubation, CCK-8; tested at 2.5 μM and 5 μM.

Regarding `CC1=C(/C=C/C(C)=C/C=C/C(C)=C/CO)C(C)(C)CCC1` [VA, vitamin A], the “inhibitory effect on LX-2 cells proliferation” value is recorded as “no inhibitory effect”.

The record behind these values is patent US20250161244A1 (UNION HOSPITAL, TONGJI MEDICAL COLLEGE, HUAZHONG UNI. OF …, priority 2023, published 2025).
